Measurements as given in patent publication US20040138301A1, “Chemical uncouplers for the treatment of obesity” (priority 2002, published 2004).

System: HEP-G2 cells
Test: cells
Conditions: for EC50 / Emax / EC (Emax): Homo sapiens; for EC50: HepG2, 3 h, read-out: HEP-G2 EC50, HEP-G2 cells, glucose utilisation, 3 hours incubation; for Emax: HepG2, read-out: HEP-G2 Emax (% of FCCP), HEP-G2 cells, maximal stimulation relative to FCCP; for EC (Emax): HepG2, read-out: HEP-G2 Emax (μM), HEP-G2 cells, concentration at which Emax is achieved (CEmax)
Outline: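 HEP-G2 cells were treated with compound for 3 h at 37 °C in MEM/0.5% BSA containing 10 μCi/ml D-(3-^3H(N))-glucose, then lysed with TCA; ^3H-water released via the respiratory chain was recovered by evaporation at 50 °C and counted. Values are corrected for non-specific and basal counts, expressed as % of maximal FCCP or DNP stimulation, and EC50 is from a variable-slope sigmoidal fit.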

Row | Compound | EC50 | Emax | EC (Emax) | HEP-G2 Tox (human, 3 h)
1 | N#CC(C#N)=NNc1ccc(OC(F)(F)F)cc1 [Example 27, Carbonylcyanide p-Trifluoromethoxy-Phenylhydrazone, reference compound] | 3000 nM | 100% | 30 µM | –
2 | N#CC(C#N)=Cc1c[nH]c2ccc(Cl)cc12 [Example 30, 2-((5-Chloro-1H-Indol-3-Yl)Methylene)Malononitrile] | 19500 nM | 60% | 100 µM | –
3 | N#CC(C#N)=Cc1c(Cl)[nH]c2ccccc12 [Example 34, 2-(2-Chloro-1H-Indol-3-Ylmethylene)-Malononitrile] | 1400 nM | 80% | 10 µM | –
4 | Cc1c(Br)cc(C(C)(C)C)c(O)c1C(=O)Nc1ccc([N+](=O)[O-])cc1Cl [Example 37, 3-Bromo-5-Tert-Butyl-N-(2-Chloro-4-Nitro-Phenyl)-6-Hydroxy-2-Methyl-Benzamide] | 35 nM | 100% | 1 µM | –
5 | Cc1c(Cl)cc(C(C)(C)C)c(O)c1C(=O)Nc1ccc([N+](=O)[O-])cc1C(F)(F)F [Example 50, 3-Tert-Butyl-5-Chloro-2-Hydroxy-6-Methyl-N-(4-Nitro-2-Trifluoromethyl-Phenyl)-Benzamide] | 30 nM | 82% | 0.1 µM | –
6 | Cc1cc(C(C#N)c2ccc(Cl)cc2)c(Cl)cc1NC(=O)c1c(C)c(Br)cc(C(C)(C)C)c1O (stereo not shown) [Example 56, 3-Bromo-5-Tert-Butyl-N-{5-Chloro-4-[(4-Chloro-Phenyl)-Cyano-Methyl]-2-Methyl-Phenyl}-6-Hydroxy-2-Methyl-Benzamide] | 6600 nM | 100% | 100 µM | –
7 | Cc1c(Br)cc(C(C)(C)C)c(O)c1C(=O)Nc1ccc([N+](=O)[O-])cc1C(F)(F)F [Example 58, 3-Bromo-5-Tert-Butyl-6-Hydroxy-2-Methyl-N-(4-Nitro-2-Trifluoromethyl-Phenyl)-Benzamide] | 30 nM | 100% | 0.1 µM | –
8 | CC(=C(C#N)C#N)c1cc(C(C)(C)C)c(O)c(C(C)(C)C)c1 [Example 75, 2-[1-(3,5-Di-Tert-Butyl-4-Hydroxy-Phenyl)-Ethylidene]-Malononitrile] | 360 nM | 120% | 30 µM | Tox 0.3 mM
9 | CC(C)(C)c1cc(/C=C(\C#N)c2ccc([N+](=O)[O-])cc2)cc(C(C)(C)C)c1O [Example 77, 3-(3,5-Di-Tert-Butyl-4-Hydroxy-Phenyl)-2-(4-Nitro-Phenyl)-Acrylonitrile] | 310 nM | 100% | 3 µM | –
